B1: S. cerevisiae Cdc34 residues 1-195 with A141K (Cdc34^A141K) (enzyme, UniProt P14682 1-195, looked up)
chain: MSSRKSTASSLLLRQYRELTDPKKAIPSFHIELEDDSNIFTWNIGVMVLNEDSIYHGGFFKAQMRFPEDFPFSPPQFRFTPAIYHPNVYRDGRLCISILHQSGDPMTDEPDAETWSPVQTVESVLISIVSLLEDPNINSPKNVDAAVDYRKNPEQYKQRVKMEVERSKQDIPKGFIMPTSESAYISQSKLDEPES
modifications: Lys141 (A141K) isopeptide-linked to Gly76 of Ub(t); Cys95 disulfide-linked to Cys600 of Uba1
notes: Cdc34 (ubiquitin E2), S. cerevisiae, residues 1-195 (Cdc34^ΔCT) with A141K; Stands in the structure as the Cdc34^A141K-Ub(t) thioester mimetic cross-linked to Uba1; also called E2; Cdc34^ΔCT A141K; source: E. coli BL21 (DE3) Codon Plus, purified (Ni-NTA, Superdex 75, MonoQ); not shown: His6, N-terminal, cleaved

Assays:
[1] = molecular target: T1, Uba1–Cdc34^A141K–Ub(t) (covalently trapped E1–E2–ubiquitin thioester mimetic) (Saccharomyces cerevisiae, UniProt P22515); assay: X-ray crystallography, […] Å; conditions: crystals grown with 1 mM ATP, 5 mM MgCl2 and excess Ub; ATP binding pocket of Uba1 adenylation domain; AMP in seven of eight copies
T1 construct: Uba1 11-1024 and Cdc34 1-195 (A141K), N-terminal TEV-cleavable 6xHis, E. coli BL21(DE3); Uba1 C600-Cdc34 C95 disulfide; Ub Gly76 isopeptide-linked to Cdc34 K141; with Ubiquitin-conjugating enzyme E2-34 kDa; Ubiquitin

[2] = molecular target: T2, S. cerevisiae Uba1 residues 11-1024 (S. cerevisiae, UniProt P22515 11-1024, Cys600 disulfide-linked to Cys95 of Cdc34 (in the crystallised complex)); assay: crystal structure; covalently trapped Uba1–Cdc34^A141K–Ub(t) complex (Cys600–Cys95 disulfide, A141K–Gly76 isopeptide bond), 100 μM, crystallised with free Ub (200 μM), 1 mM ATP and 5 mM MgCl2 at 18 °C; 3.43 Å; eight copies, four open and four closed; conditions: both partners purified
T2 construct: Uba1 (ubiquitin E1), S. cerevisiae, residues 11-1024; In the structure it is covalently trapped with Cdc34^A141K-Ub(t) through a disulfide between the catalytic cysteines; also called E1; ScUba1; source: E. coli BL21 (DE3) Codon Plus, purified (Ni-NTA, Superdex 200, MonoQ); not shown: His6, N-terminal, cleaved
T2 sequence (P22515 11-1024): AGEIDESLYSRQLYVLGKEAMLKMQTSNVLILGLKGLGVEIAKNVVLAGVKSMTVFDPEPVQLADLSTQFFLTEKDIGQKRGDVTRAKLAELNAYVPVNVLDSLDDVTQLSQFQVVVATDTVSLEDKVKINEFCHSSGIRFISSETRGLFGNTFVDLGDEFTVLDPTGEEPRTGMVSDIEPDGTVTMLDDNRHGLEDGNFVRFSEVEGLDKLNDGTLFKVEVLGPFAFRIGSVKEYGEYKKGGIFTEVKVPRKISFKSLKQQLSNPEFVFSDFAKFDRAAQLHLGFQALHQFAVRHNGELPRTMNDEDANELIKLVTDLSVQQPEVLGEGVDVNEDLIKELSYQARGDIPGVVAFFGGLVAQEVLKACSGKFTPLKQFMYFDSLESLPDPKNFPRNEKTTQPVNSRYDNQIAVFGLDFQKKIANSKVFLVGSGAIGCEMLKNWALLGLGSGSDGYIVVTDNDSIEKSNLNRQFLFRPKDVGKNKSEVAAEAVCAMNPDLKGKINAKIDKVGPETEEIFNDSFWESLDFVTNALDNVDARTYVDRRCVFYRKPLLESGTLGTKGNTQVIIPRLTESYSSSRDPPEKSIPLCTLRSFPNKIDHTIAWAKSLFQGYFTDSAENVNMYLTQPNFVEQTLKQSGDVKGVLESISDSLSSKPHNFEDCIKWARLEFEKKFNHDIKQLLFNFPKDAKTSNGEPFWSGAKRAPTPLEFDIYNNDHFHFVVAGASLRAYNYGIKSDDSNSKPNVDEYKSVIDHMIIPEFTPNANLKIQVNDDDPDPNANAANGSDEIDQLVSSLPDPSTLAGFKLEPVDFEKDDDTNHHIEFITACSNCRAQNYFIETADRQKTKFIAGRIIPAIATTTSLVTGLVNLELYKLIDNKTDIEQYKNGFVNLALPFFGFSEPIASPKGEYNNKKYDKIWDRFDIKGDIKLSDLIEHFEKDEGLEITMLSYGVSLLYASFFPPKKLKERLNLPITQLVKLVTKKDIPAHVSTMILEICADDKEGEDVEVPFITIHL

Molecule	X-ray crystallography, 3.43 Å [1]	binding result [2]
Nc1ncnc2c1ncn2[C@@H]1O[C@H](COP(=O)(O)O)[C@@H](O)[C@H]1O [AMP]	strong electron density into which AMP (but not the β and γ phosphates of ATP)	
B1		binds

Source: PMC8062481, “Crystal structures of an E1–E2–ubiquitin thioester mimetic reveal molecular mechanisms of transthioesterification” (Nature Communications, 2021)
